Experimental data taken from ChEMBL document CHEMBL1201862, “PubChem BioAssay data set” (2004).
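Protocol summary: plate cells (96-well), add compound at 5 concentrations, incubate 48 h, interpolate endpoints linearly. GI50 marks 50% less growth.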 The source made the active and inactive calls. No stated cut-off is given here; in the data, active = GI50 up to about 1.1 µM and inactive = higher.

How the values were obtained:
Experiment in all cases: NCI tumour cell line growth inhibition, 48 h
[1] = test system: OVCAR-3
[2] = test system: NCI-H226
[3] = test system: MCF7
[4] = test system: U-251
[5] = test system: HL-60
[6] = test system: NCI-H460
[7] = test system: M14
[8] = test system: MDA-MB-435
[9] = test system: HOP-92
[10] = test system: LOX IMVI
[11] = test system: SR
[12] = test system: SN12C
[13] = test system: SK-MEL-5
[14] = test system: MDA-MB-231
[15] = test system: OVCAR-5
[16] = test system: NCI-H522
[17] = test system: T47D
[18] = test system: NCI-H23
[19] = test system: KM12
[20] = test system: EKVX

| Compound | GI50 [1] | GI50 [2] | GI50 [3] | GI50 [4] | GI50 [5] | GI50 [6] | GI50 [7] | GI50 [8] | GI50 [9] | GI50 [10] | GI50 [11] | GI50 [12] | GI50 [13] | GI50 [14] | GI50 [15] | GI50 [16] | GI50 [17] | GI50 [18] | GI50 [19] | GI50 [20] |
| --- | --- | --- | --- | --- | --- | --- | --- | --- | --- | --- | --- | --- | --- | --- | --- | --- | --- | --- | --- | --- |
| CC1(O)/C(=N/O)CC2CC1C2(C)C (centres undefined) | > 100 µM (inactive) | > 100 µM (inactive) | > 100 µM (inactive) | > 100 µM (inactive) | > 100 µM (inactive) | > 100 µM (inactive) | > 100 µM (inactive) | > 100 µM (inactive) | > 100 µM (inactive) | > 100 µM (inactive) | > 10 µM (inactive) | > 100 µM (inactive) | > 100 µM (inactive) | > 100 µM (inactive) | > 100 µM (inactive) | > 100 µM (inactive) | > 100 µM (inactive) | > 100 µM (inactive) | > 100 µM (inactive) | – |
| COP(=O)(OC)/C(=C\c1cn(C(c2ccccc2)(c2ccccc2)c2ccccc2)cn1)NC(C)=O | > 100 µM (inactive) | > 100 µM (inactive) | 88.3 µM (inactive) | > 100 µM (inactive) | 53.8 µM (inactive) | > 100 µM (inactive) | > 100 µM (inactive) | > 100 µM (inactive) | > 100 µM (inactive) | > 100 µM (inactive) | 81.8 µM (inactive) | > 100 µM (inactive) | – | > 100 µM (inactive) | > 100 µM (inactive) | > 100 µM (inactive) | > 100 µM (inactive) | > 100 µM (inactive) | 52.4 µM (inactive) | > 100 µM (inactive) |
| CSc1nc(=O)c(C#N)c(-c2ccccc2)n1C1OC(COC(C)=O)C(OC(C)=O)C(OC(C)=O)C1OC(C)=O (centres undefined) | 78.3 µM (inactive) | > 100 µM (inactive) | > 100 µM (inactive) | > 100 µM (inactive) | > 100 µM (inactive) | 31.3 µM (inactive) | > 100 µM (inactive) | > 100 µM (inactive) | 46.9 µM (inactive) | 98.4 µM (inactive) | > 100 µM (inactive) | > 100 µM (inactive) | 81.7 µM (inactive) | > 100 µM (inactive) | > 100 µM (inactive) | > 100 µM (inactive) | 86.3 µM (inactive) | > 100 µM (inactive) | > 100 µM (inactive) | > 100 µM (inactive) |
| O=C(/C=C/c1ccccc1)Nc1ccccc1SCCCCl | 13.1 µM (inactive) | > 33.7 µM (inactive) | 4.4 µM (inactive) | 8.93 µM (inactive) | 3.8 µM (inactive) | 10.2 µM (inactive) | 20.1 µM (inactive) | 4.95 µM (inactive) | 3.67 µM (inactive) | 8.81 µM (inactive) | 9.38 µM (inactive) | 8.93 µM (inactive) | 19.3 µM (inactive) | 11.4 µM (inactive) | 34 µM (inactive) | 4.07 µM (inactive) | 7.52 µM (inactive) | 3.56 µM (inactive) | 3.78 µM (inactive) | 15.4 µM (inactive) |
| CC(NC(=O)C(C)C(=O)Nc1ccc(C(F)(F)F)cc1)C(N)=O (centres undefined) | – | > 100 µM (inactive) | > 100 µM (inactive) | > 100 µM (inactive) | > 100 µM (inactive) | > 100 µM (inactive) | > 100 µM (inactive) | > 100 µM (inactive) | > 100 µM (inactive) | – | > 10 µM (inactive) | > 100 µM (inactive) | > 100 µM (inactive) | > 100 µM (inactive) | > 100 µM (inactive) | > 100 µM (inactive) | > 100 µM (inactive) | > 100 µM (inactive) | > 100 µM (inactive) | > 100 µM (inactive) |
| COc1ccc(/C=c2\s/c(=C3/SC(=S)N(c4ccccc4)C3=O)n(-c3ccccc3)c2=O)cc1 | > 100 µM (inactive) | – | 0.264 µM (active) | 19.6 µM (inactive) | > 100 µM (inactive) | 12.8 µM (inactive) | > 100 µM (inactive) | > 100 µM (inactive) | 21.6 µM (inactive) | > 100 µM (inactive) | 15.3 µM (inactive) | > 100 µM (inactive) | > 100 µM (inactive) | 49.3 µM (inactive) | > 100 µM (inactive) | > 100 µM (inactive) | > 100 µM (inactive) | 26.9 µM (inactive) | > 100 µM (inactive) | > 100 µM (inactive) |
| C/C(=N/NC(=S)Nc1ccccc1Cl)c1cccc(/C(C)=N\NC(=S)Nc2ccccc2Cl)n1 | 16.3 µM (inactive) | > 100 µM (inactive) | 15.1 µM (inactive) | 26.7 µM (inactive) | > 100 µM (inactive) | 5.47 µM (inactive) | 22 µM (inactive) | > 100 µM (inactive) | > 100 µM (inactive) | 61.8 µM (inactive) | 5.66 µM (inactive) | > 100 µM (inactive) | 12.4 µM (inactive) | 12.2 µM (inactive) | > 100 µM (inactive) | 46.7 µM (inactive) | > 100 µM (inactive) | 54.7 µM (inactive) | 7.24 µM (inactive) | > 100 µM (inactive) |
| Br[C@@H]1[C@H]2c3nc4ccccc4nc3[C@@H]1C[C@H]2Br | 76.9 µM (inactive) | 31.3 µM (inactive) | 81.7 µM (inactive) | 69.2 µM (inactive) | 32.5 µM (inactive) | 64.6 µM (inactive) | > 100 µM (inactive) | 91.2 µM (inactive) | 41.2 µM (inactive) | > 100 µM (inactive) | 48.9 µM (inactive) | > 100 µM (inactive) | 26.5 µM (inactive) | > 100 µM (inactive) | > 100 µM (inactive) | 54.8 µM (inactive) | 36.8 µM (inactive) | 58.3 µM (inactive) | 51.4 µM (inactive) | 86.1 µM (inactive) |
| O=[N+]([O-])c1ccc(-c2cc(O)c3nc4ccccc4n3c2)cc1 | > 100 µM (inactive) | > 100 µM (inactive) | > 84.7 µM (inactive) | 28.1 µM (inactive) | > 100 µM (inactive) | > 100 µM (inactive) | > 100 µM (inactive) | > 31.6 µM (inactive) | > 65.9 µM (inactive) | > 100 µM (inactive) | > 100 µM (inactive) | > 100 µM (inactive) | > 100 µM (inactive) | > 100 µM (inactive) | > 100 µM (inactive) | > 93.1 µM (inactive) | 74 µM (inactive) | > 100 µM (inactive) | > 100 µM (inactive) | > 100 µM (inactive) |
| CCCN(CCC)C(=S)Sc1nc(C)nc(N2CCN(c3nc(C)nc(SC(=S)N(CCC)CCC)c3[N+](=O)[O-])CC2)c1[N+](=O)[O-] | – | 21.8 µM (inactive) | 0.248 µM (active) | 6.5 µM (inactive) | 3.1 µM (inactive) | 23.9 µM (inactive) | 15.2 µM (inactive) | 4.82 µM (inactive) | 15.8 µM (inactive) | 0.421 µM (active) | 1.07 µM (active) | 8.77 µM (inactive) | 3.16 µM (inactive) | 7.69 µM (inactive) | 23.4 µM (inactive) | 0.316 µM (active) | 8.2 µM (inactive) | 12.4 µM (inactive) | 14.2 µM (inactive) | 30.5 µM (inactive) |
| O=C1N[C@@H]2c3c(Br)sc(Br)c3C(=O)[C@@H]2O1 | 1.8 µM (inactive) | 9.66 µM (inactive) | 3.98 µM (inactive) | 2.39 µM (inactive) | 0.743 µM (active) | 8.67 µM (inactive) | 1.97 µM (inactive) | 2.47 µM (inactive) | 5.14 µM (inactive) | 1.83 µM (inactive) | 1.81 µM (inactive) | 2.93 µM (inactive) | 6.59 µM (inactive) | 2.41 µM (inactive) | 13.7 µM (inactive) | 0.703 µM (active) | 9.18 µM (inactive) | 2.83 µM (inactive) | 10.7 µM (inactive) | 2.13 µM (inactive) |
| CN(C)CC1CN/C(=N\C(=O)Nc2ccccc2)O1 (centres undefined) | > 10 µM (inactive) | > 100 µM (inactive) | > 100 µM (inactive) | > 100 µM (inactive) | > 100 µM (inactive) | > 100 µM (inactive) | > 100 µM (inactive) | > 100 µM (inactive) | > 100 µM (inactive) | > 100 µM (inactive) | > 100 µM (inactive) | > 100 µM (inactive) | > 100 µM (inactive) | > 100 µM (inactive) | > 100 µM (inactive) | > 100 µM (inactive) | > 100 µM (inactive) | > 100 µM (inactive) | > 100 µM (inactive) | > 100 µM (inactive) |
| C=CCOc1ccc(C2C(C(=O)OCC)C(=O)CC(C)(O)C2C(=O)OCC)cc1OC (centres undefined) | > 100 µM (inactive) | > 100 µM (inactive) | > 100 µM (inactive) | > 100 µM (inactive) | > 100 µM (inactive) | > 100 µM (inactive) | > 100 µM (inactive) | > 100 µM (inactive) | > 100 µM (inactive) | > 100 µM (inactive) | > 100 µM (inactive) | > 100 µM (inactive) | > 100 µM (inactive) | > 100 µM (inactive) | > 100 µM (inactive) | > 100 µM (inactive) | > 100 µM (inactive) | > 100 µM (inactive) | > 100 µM (inactive) | > 100 µM (inactive) |
| CCN(CC)CCNc1ccc2nnn3c4ccc([N+](=O)[O-])cc4c(=O)c1c23 | > 79.6 µM (inactive) | 3.34 µM (inactive) | 3.67 µM (inactive) | 5.21 µM (inactive) | 6.52 µM (inactive) | 3.93 µM (inactive) | 11.8 µM (inactive) | > 100 µM (inactive) | 11.3 µM (inactive) | 4.58 µM (inactive) | 5.01 µM (inactive) | 7.05 µM (inactive) | 3.62 µM (inactive) | 3.94 µM (inactive) | 13.2 µM (inactive) | 8.15 µM (inactive) | > 100 µM (inactive) | 10.8 µM (inactive) | 6.28 µM (inactive) | 14.1 µM (inactive) |
